In patent US12043600B2, “Microbiocidal compounds” (SYNGENTA CROP PROTECTION AG, priority 2018, dated 2024):

Key:
[1] = system: Botryotinia fuckeliana (Botrytis cinerea); test: Botryotinia fuckeliana (Botrytis cinerea)/Liquid Culture (Gray Mould); format: cell-based; conditions: liquid culture, compared to untreated control
Protocol: Conidia of the fungus from cryogenic storage are directly mixed into nutrient broth (Vogels broth). After placing a (DMSO) solution of test compound into a microtiter plate (96-well format), the nutrient broth containing the fungal spores is added.

[2] = system: Glomerella lagenarium (Colletotrichum lagenarium); test: Glomerella lagenarium (Colletotrichum lagenarium)/Liquid Culture (Anthracnose); format: cell-based; conditions: Colletotrichum orbiculare, liquid culture, compared to untreated control
[3] = system: Blumeria graminis f. sp. tritici (Erysiphe graminis f. sp. tritici); test: Blumeria graminis f. sp. tritici/Wheat/Leaf Disc Preventative (Powdery Mildew on Wheat); format: in vivo; conditions: foliar, wheat leaf disc preventative, compared to untreated control
Outline: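 Preventative leaf-disc test: percent disease control versus untreated leaf segments read 6-8 days post-application. Compound spray applied to wheat cv. Kanzler segments on agar one day before shaking infected plants over them; incubation at 20° C and 60% rh, 24 h darkness then 12 h light/12 h dark cycles.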

[4] = system: Phaeosphaeria nodorum (Septoria nodorum); test: Phaeosphaeria nodorum (Septoria nodorum)/Wheat/Leaf Disc Preventative (Glume Blotch); format: in vivo; conditions: Parastagonospora nodorum, foliar, wheat leaf disc preventative, compared to untreated control
Outline: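 Preventative test: compound spray first, then spore inoculation after 2 days on cv. Kanzler wheat leaf segments. Incubation in a climate cabinet at 20 °C and 75% rh under a 12 h light/12 h dark cycle. Activity rated as % control relative to untreated discs at 5–7 days post-application.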

[5] = system: Monographella nivalis (Microdochium nivale); test: Monographella nivalis (Microdochium nivale)/Liquid Culture (Foot Rot Cereals); format: cell-based; conditions: liquid culture, compared to untreated control
Outline: (§1)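 Growth inhibition read in liquid culture: spores from frozen stocks, suspended in potato dextrose broth, meet DMSO-dissolved compound placed beforehand in the plate.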

[6] = system: Mycosphaerella arachidis (Cercospora arachidicola); test: Mycosphaerella arachidis (Cercospora arachidicola)/Liquid Culture (Early Leaf Spot); format: cell-based; conditions: liquid culture, compared to untreated control
Outline: as §1

Phakopsora pachyrhizi = test: Phakopsora pachyrhizi/Soybean/Preventative (Soybean Rust); format: in vivo; conditions: 288 h, Phakopsora pachyrhizi (Soybean rust); for pest or weed control at 200 ppm: read-out: control (%)
Phytophthora infestans = test: whole plant or invertebrate; format: in vivo; conditions: in Solanum lycopersicum, foliar, read-out: control of Phytophthora infestans
Plasmopara viticola = test: whole plant or invertebrate; format: in vivo; conditions: foliar, read-out: control of Plasmopara viticola
[7] = system: Magnaporthe grisea (Pyricularia oryzae); test: whole plant or invertebrate; format: in vivo; conditions: foliar, read-out: control of Magnaporthe grisea
[8] = system: Thanatephorus cucumeris (Rhizoctonia solani); test: Thanatephorus cucumeris (Rhizoctonia solani)/Liquid Culture (Foot Rot, Damping-Off); format: cell-based; conditions: liquid culture, compared to untreated control
Protocol: Mycelia fragments of a newly grown liquid culture of the fungus are directly mixed into nutrient broth (PDB potato dextrose broth). After placing a (DMSO) solution of the test compounds into a microtiter plate (96-well format), the nutrient broth containing the fungal material is added.

[9] = system: Mycosphaerella graminicola (Septoria tritici); test: Mycosphaerella graminicola (Septoria tritici)/Liquid Culture (Septoria Blotch); format: cell-based; conditions: Zymoseptoria tritici; 20 ppm; liquid culture; compared to untreated control
Outline: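 Results given as % disease control: test compound in DMSO was placed in wells first, then potato dextrose broth carrying cryostored fungal conidia was added.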

[10] = Photostability assay (Atlas Suntest); format: physicochemical; conditions: Suntest 750 W/m^2, spotted on microscope slides
Protocol: The testing method to measure the photostability data of each compound in table is D1 is as specifically described below. The objective of the photostability assay was to determine the stability of the individual test compounds in a strictly controlled and reproducible environment allowing a comparison of their photostability.
Method: Compounds were dissolved in methanol (HPLC grade) to give 1 g/L stock solutions. Compound stock solution (2 μl) was spotted onto microscope slides in a 3D printed holder and put into the Atlas Suntest. The spectral output power of the Suntest was set to 750 W/m^2, which is considered typical of the daily maximum (noon) irradiance level on a very bright British Summer day. At specific time points slides were removed from the Suntest and placed in 4D vials. Wash solvent made up of 50:40:10 H2O:MeCN:THF (1 mL) is then added to the vials and whirlimixed. The resulting solution is then subsampled to an HPLC vial to be analysed. A Waters UPLC system with Photodiode Array was used with a Waters reverse phase column (BEH C18, 100×2.1 mm×1.7 μm) and acetonitrile (HPLC grade) acidified water (0.2% formic acid) mobile phase at a flow rate of 0.6 mL/min. Peak detection was at the optimum wavelength and peak areas were used for quantification
Initial and subsequent measurements of peak area attributable to the test compound were used to provide a % parent remaining at 3 hours.

[11] = system: Puccinia recondita f. sp. tritici; test: Puccinia recondita f. sp. tritici/Wheat/Leaf Disc Curative (Brown Rust); format: in vivo; conditions: foliar, wheat leaf disc curative, compared to untreated control
Outline: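 Formulated compound, diluted in water, is applied to inoculated wheat cv. Kanzler leaf segments on agar one day post-inoculation (pre-incubation dark, 19° C, 75% rh). After 6-8 days at 19° C, 75% rh and 12 h/12 h light, activity is rated as percent disease control relative to untreated segments.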

[12] = system: Puccinia recondita f. sp. tritici; test: Puccinia recondita f. sp. tritici/Wheat/Leaf Disc Preventative (Brown Rust); format: in vivo; conditions: foliar, 200 ppm, wheat leaf disc preventative, compared to untreated control, read-out: control of Puccinia recondita f. sp. tritici
Pyrenophora teres = test: Pyrenophora teres/Barley/Leaf Disc Preventative (Net Blotch); format: in vivo; conditions: foliar, 200 ppm, barley leaf disc preventative, compared to untreated control, read-out: control of Pyrenophora teres
Outline: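 Preventative leaf-disc test: inoculation with fungal spores took place 2 days after spraying segments of barley cv. Hasso, placed on agar, with water-diluted formulated compound. Read-out is % disease control per compound.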

Alternaria solani = test: Alternaria solani/Tomato/Leaf Disc (Early Blight); format: in vivo; conditions: foliar, tomato leaf disc, compared to untreated control
Outline: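 Protective leaf-disc test: compound sprayed onto tomato cv. Baby disks, spore inoculation following after 2 days. Disks kept at 80% rh, 12/12 h light/dark, 23° C. day and 21° C. night; activity read as percent disease control relative to untreated checks 5-7 days post-application.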

Row | SMILES | inhibition of growth at 20 ppm [1] | inhibition of growth at 20 ppm [2] | pest or weed control at 200 ppm [3] | pest or weed control at 200 ppm [4] | inhibition of growth at 20 ppm [5] | inhibition of growth at 20 ppm [6] | pest or weed control at 0.6 ppm (Phakopsora pachyrhizi) | pest or weed control at 2 ppm (Phakopsora pachyrhizi) | pest or weed control at 6 ppm (Phakopsora pachyrhizi) | pest or weed control at 20 ppm (Phakopsora pachyrhizi) | pest or weed control at 60 ppm (Phakopsora pachyrhizi) | pest or weed control at 200 ppm (Phakopsora pachyrhizi) | pest or weed control at 200 ppm (Phytophthora infestans) | pest or weed control at 200 ppm (Plasmopara viticola) | pest or weed control at 200 ppm [7] | inhibition of growth at 20 ppm [8] | inhibition of growth at 20 ppm [9] | % Parent Remaining @ 3 hrs [10] | melting point | pest or weed control at 200 ppm (Pyrenophora teres) | also measured
1 | CCCc1ccn(-c2ccc(C)c(O/C(=C\OC)C(=O)OC)c2)n1 [Compound E-40, methyl (Z)-3-methoxy-2-[2-methyl-5-(3-propylpyrazol-1-yl)phenoxy]prop-2-enoate] | ≥ 80% | ≥ 80% | ≥ 80% | ≥ 80% | ≥ 80% | ≥ 80% | 10% | 35% | 90% | 95% | 100% | 100% | ≥ 80% | ≥ 80% | ≥ 80% | ≥ 80% | ≥ 80% | 65% | 91 to 94 °C | – | –
2 | CO/C=C(\Oc1cc(-n2ccc(C(C)C)n2)c(F)cc1C)C(=O)OC [Compound E-41, methyl (Z)-2-[4-fluoro-5-(3-isopropylpyrazol-1-yl)-2-methyl-phenoxy]-3-methoxy-prop-2-enoate] | – | ≥ 80% | ≥ 80% | – | ≥ 80% | ≥ 80% | – | – | – | – | – | – | – | ≥ 80% | ≥ 80% | ≥ 80% | ≥ 80% | 28% | – | – | pest or weed control at 200 ppm [11]: ≥ 80%; pest or weed control at 200 ppm [12]: ≥ 80%
3 | CCC(C)c1ccn(-c2ccc(C)c(O/C(=C\OC)C(=O)OC)c2)n1 (stereo not drawn) [Compound E-44, methyl (Z)-3-methoxy-2-[2-methyl-5-(3-sec-butylpyrazol-1-yl)phenoxy]prop-2-enoate] | ≥ 80% | ≥ 80% | ≥ 80% | ≥ 80% | ≥ 80% | ≥ 80% | – | – | – | – | – | – | ≥ 80% | ≥ 80% | ≥ 80% | ≥ 80% | ≥ 80% | 69% | 110 to 113 °C | ≥ 80% | –
4 | CO/C=C(\Oc1cc(-n2ccc(OC(C)C)n2)ccc1C)C(=O)OC [Compound E-70, methyl (Z)-2-[5-(3-isopropoxypyrazol-1-yl)-2-methyl-phenoxy]-3-methoxy-prop-2-enoate] | – | ≥ 80% | ≥ 80% | ≥ 80% | ≥ 80% | ≥ 80% | – | – | – | – | – | – | ≥ 80% | ≥ 80% | ≥ 80% | – | ≥ 80% | 25% | 94 to 97 °C | ≥ 80% | pest or weed control at 200 ppm (Alternaria solani): ≥ 80%
5 | CO/C=C(\Oc1cc(-n2ccc(C3CCC3)n2)ccc1C)C(=O)OC [Compound E-88, methyl (Z)-2-[5-(3-cyclobutylpyrazol-1-yl)-2-methyl-phenoxy]-3-methoxy-prop-2-enoate] | ≥ 80% | ≥ 80% | ≥ 80% | ≥ 80% | ≥ 80% | ≥ 80% | – | – | – | – | – | – | ≥ 80% | ≥ 80% | ≥ 80% | – | ≥ 80% | 34% | 91 to 94 °C | – | pest or weed control at 200 ppm (Alternaria solani): ≥ 80%
6 | CO/C=C(\Oc1cc(-n2ccc(CC(C)C)n2)ccc1C)C(=O)OC [Compound E-90, methyl (Z)-2-[5-(3-isobutylpyrazol-1-yl)-2-methyl-phenoxy]-3-methoxy-prop-2-enoate] | ≥ 80% | ≥ 80% | ≥ 80% | ≥ 80% | ≥ 80% | ≥ 80% | – | – | – | – | – | – | ≥ 80% | ≥ 80% | ≥ 80% | – | ≥ 80% | 42% | 76 to 80 °C | – | –
7 | CO/C=C(\Oc1cc(-n2ccc(C3CC3)n2)ccc1C)C(=O)OC [Compound E-101, methyl (Z)-2-[5-(3-cyclopropylpyrazol-1-yl)-2-methyl-phenoxy]-3-methoxy-prop-2-enoate] | ≥ 80% | ≥ 80% | ≥ 80% | ≥ 80% | ≥ 80% | ≥ 80% | – | – | – | – | – | – | ≥ 80% | ≥ 80% | – | ≥ 80% | ≥ 80% | 38% | 115 to 118 °C | – | –
8 | CO/C=C(\Oc1cc(-n2ccc(C(F)(F)F)n2)ccc1C)C(=O)OC [Compound E-105, methyl (Z)-3-methoxy-2-[2-methyl-5-[3-(trifluoromethyl)pyrazol-1-yl]phenoxy]prop-2-enoate] | ≥ 80% | ≥ 80% | ≥ 80% | ≥ 80% | ≥ 80% | ≥ 80% | 0% | 0% | 20% | 95% | 100% | 100% | – | ≥ 80% | ≥ 80% | – | ≥ 80% | 74% | 154 to 156 °C | ≥ 80% | pest or weed control at 200 ppm (Alternaria solani): ≥ 80%
9 | CO/C=C(\Oc1cccc(-n2cccc2)c1)C(=O)OC [Compound X-1, reference compound] | – | – | – | – | – | – | 0% | 0% | 0% | 10% | 10% | 45% | – | – | – | – | – | 9% | – | – | –
